Test results from ChEMBL document CHEMBL6083278, “Unnatural Amino Acids: Strategies, Designs, and Applications in Medicinal Chemistry and Drug Discovery” (J Med Chem, 2024).
Values after ≈ are worked out from the molar mass of the structure shown. Bridge positions count the residues as written; N and C are the ends. Square brackets hold non-standard residues; d marks the D form. Peptide text beside a SMILES is read from it. * marks the point of attachment. Bip = N[C@@H](Cc1ccc(-c2ccccc2)cc1)C(=O)O; dPhe(4-I) = N[C@H](Cc1ccc(I)cc1)C(=O)O; NMe2Val = CC(C)[C@@H](C(=O)*)N(C)C; NMeI = CC[C@H](C)[C@H](NC)C(=O)O; NMeT = CN[C@H](C(=O)O)[C@@H](C)O; 4Pal = N[C@@H](Cc1ccncc1)C(=O)O; Tic = O=C(O)[C@@H]1Cc2ccccc2CN1; NMeL = CN[C@@H](CC(C)C)C(=O)O; S5 = C=CCCC[C@](C)(N)C(=O)O; Hiv = CC(C)[C@H](O)C(=O)O; NMeS = CN[C@@H](CO)C(=O)O; Octanoyl = CCCCCCCC(=O)*; dNMeA = CN[C@H](C)C(=O)O; Sar = CNCC(=O)O

Experiments:
[1] = Inhibition of GABA-A receptor (unknown origin); set-up: species or system Homo sapiens
Melanocortin receptor 3 = Melanocortin receptor 3 (Homo sapiens, UniProt P41968); test: Inhibition of MC3R (unknown origin)
[2] = target: G-protein coupled receptor 52 (Homo sapiens, UniProt Q9Y2T5); test: Agonist activity at human GPR52 expressed in CHO cells assessed as increase in intracellular cAMP level incubated for 30 mins by Alphascreen assay; format: functional, cell-based
Replicase polyprotein 1a = Replicase polyprotein 1a (Severe acute respiratory syndrome-related coronavirus, UniProt P0C6U8); test: Inhibition of SARS-CoV MPro using Dabcyl-KTSAVLQSGFRKM-E(Edans)-NH2 as substrate preincubated for 15 mins followed by substrate addition measured after 30 mins by FRET assay
Candida albicans = test: Antifungal activity against Candida albicans ATCC 10231 assessed as fungal growth inhibition; format: functional, organism-based
Cryptococcus neoformans = test: Antifungal activity against Cryptococcus neoformans ATCC 32045 assessed as inhibition of fungal growth incubated for 72 hrs by broth microdilution method; format: functional
Enterococcus faecalis = test: Antibacterial activity against Enterococcus faecalis ATCC 29212 assessed as bacterial growth inhibition by agar diffusion assay; format: functional
Staphylococcus aureus [3] = test: Antibacterial activity against Staphylococcus aureus assessed as reduction in microbial growth by CLSI based broth microdilution method; format: functional
Pseudomonas aeruginosa [4] = test: Antimicrobial activity against Pseudomonas aeruginosa ATCC 27853 assessed as reduction in microbial growth after 24 hrs by CLSI based Mueller-Hinton broth assay; format: functional
Klebsiella pneumoniae = test: Antimicrobial activity against Klebsiella pneumoniae ATCC 13882 assessed as reduction in microbial growth after 24 hrs by CLSI based Mueller-Hinton broth assay; format: functional
Escherichia coli [5] = test: Antimicrobial activity against Escherichia coli ATCC 25922 assessed as reduction in microbial growth after 24 hrs by CLSI based Mueller-Hinton broth assay; format: functional
Acinetobacter baumannii [6] = test: Antibacterial activity against Acinetobacter baumannii ATCC 17978 assessed as reduction in microbial growth after 24 hrs by CLSI based Mueller-Hinton broth assay; format: functional
Staphylococcus aureus [7] = test: Antibacterial activity against Staphylococcus aureus ATCC 25923 assessed as reduction in bacterial growth incubated for 18 to 20 hrs by broth microdilution assay; format: functional; conditions: time 18-20 hrs
Escherichia coli [8] = test: Antibacterial activity against Escherichia coli K12 assessed as reduction in bacterial growth incubated for 16 hrs by Broth micro-dilution assay; format: functional
Acinetobacter baumannii [9] = test: Antibacterial activity against Acinetobacter baumannii ATCC 19606 assessed as reduction in microbial growth after 16 hrs by broth microdilution method; format: functional
Pseudomonas aeruginosa [10] = test: Antibacterial activity against Pseudomonas aeruginosa PAO1 assessed as bacterial growth inhibition by CLSI protocol based microdilution method; format: functional
Mu-type opioid receptor = Mu-type opioid receptor (Homo sapiens, UniProt P35372); test: Agonist activity at MOR (unknown origin); format: functional
[11] = target: Amyloid-beta precursor protein (Homo sapiens) (UniProt P05067); test: Inhibition of amyloid beta42 (unknown origin) aggregation at 10 uM measured after 5 mins by ThT fluorescence based assay relative to control
HeLa = test: Antiproliferative activity against human HeLa cells assessed as reduction in cell viability by MTT assay; format: functional, cell-based
[12] = Half life in human plasma; format: ADME, cell-free
[13] = target: Tyrosine-protein kinase FRK (Homo sapiens, UniProt P42685); test: Inhibition of FRK (unknown origin)
Escherichia coli [14] = test: Antibacterial activity against Escherichia coli ATCC 25922 assessed as bacterial growth inhibition; format: functional
[15] = Binding affinity to SETD8 (unknown origin) assessed as dissociation constant; set-up: species or system Homo sapiens

Sequence of Melanocortin receptor 3 (P41968 whole entry): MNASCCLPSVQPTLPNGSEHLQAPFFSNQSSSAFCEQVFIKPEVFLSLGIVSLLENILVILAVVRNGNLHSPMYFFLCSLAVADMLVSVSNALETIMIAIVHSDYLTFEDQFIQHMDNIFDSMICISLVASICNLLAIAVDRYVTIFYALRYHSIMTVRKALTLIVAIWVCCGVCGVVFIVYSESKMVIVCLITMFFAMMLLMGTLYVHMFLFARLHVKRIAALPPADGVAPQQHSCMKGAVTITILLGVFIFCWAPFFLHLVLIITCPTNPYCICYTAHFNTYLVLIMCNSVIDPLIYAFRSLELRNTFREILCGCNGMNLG
Sequence of Mu-type opioid receptor (P35372 whole entry): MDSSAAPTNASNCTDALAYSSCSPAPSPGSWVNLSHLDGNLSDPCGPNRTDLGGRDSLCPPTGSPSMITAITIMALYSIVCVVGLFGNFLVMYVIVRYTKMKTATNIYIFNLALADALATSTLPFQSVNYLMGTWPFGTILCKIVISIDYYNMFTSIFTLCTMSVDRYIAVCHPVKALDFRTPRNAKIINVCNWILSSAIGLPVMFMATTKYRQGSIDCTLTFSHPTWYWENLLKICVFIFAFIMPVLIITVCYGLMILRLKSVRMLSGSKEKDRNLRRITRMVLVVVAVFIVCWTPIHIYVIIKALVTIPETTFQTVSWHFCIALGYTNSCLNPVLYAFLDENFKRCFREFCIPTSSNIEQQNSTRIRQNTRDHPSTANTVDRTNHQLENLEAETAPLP
Sequence of Tyrosine-protein kinase FRK (P42685 whole entry): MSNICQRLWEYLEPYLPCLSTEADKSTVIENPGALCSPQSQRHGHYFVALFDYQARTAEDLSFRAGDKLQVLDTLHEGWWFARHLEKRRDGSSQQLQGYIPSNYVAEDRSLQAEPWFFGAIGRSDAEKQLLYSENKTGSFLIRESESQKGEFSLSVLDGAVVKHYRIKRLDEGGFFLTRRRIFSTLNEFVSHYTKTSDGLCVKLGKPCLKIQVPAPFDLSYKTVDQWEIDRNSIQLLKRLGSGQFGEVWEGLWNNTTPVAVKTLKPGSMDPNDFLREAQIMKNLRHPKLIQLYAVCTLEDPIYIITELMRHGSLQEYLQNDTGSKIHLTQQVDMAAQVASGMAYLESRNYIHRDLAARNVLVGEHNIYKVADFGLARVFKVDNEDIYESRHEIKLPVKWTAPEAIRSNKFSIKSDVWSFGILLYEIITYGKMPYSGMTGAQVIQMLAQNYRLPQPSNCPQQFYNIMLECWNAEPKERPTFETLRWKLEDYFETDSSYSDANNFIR
Sequence of Amyloid-beta precursor protein (Homo sapiens) (P05067 whole entry): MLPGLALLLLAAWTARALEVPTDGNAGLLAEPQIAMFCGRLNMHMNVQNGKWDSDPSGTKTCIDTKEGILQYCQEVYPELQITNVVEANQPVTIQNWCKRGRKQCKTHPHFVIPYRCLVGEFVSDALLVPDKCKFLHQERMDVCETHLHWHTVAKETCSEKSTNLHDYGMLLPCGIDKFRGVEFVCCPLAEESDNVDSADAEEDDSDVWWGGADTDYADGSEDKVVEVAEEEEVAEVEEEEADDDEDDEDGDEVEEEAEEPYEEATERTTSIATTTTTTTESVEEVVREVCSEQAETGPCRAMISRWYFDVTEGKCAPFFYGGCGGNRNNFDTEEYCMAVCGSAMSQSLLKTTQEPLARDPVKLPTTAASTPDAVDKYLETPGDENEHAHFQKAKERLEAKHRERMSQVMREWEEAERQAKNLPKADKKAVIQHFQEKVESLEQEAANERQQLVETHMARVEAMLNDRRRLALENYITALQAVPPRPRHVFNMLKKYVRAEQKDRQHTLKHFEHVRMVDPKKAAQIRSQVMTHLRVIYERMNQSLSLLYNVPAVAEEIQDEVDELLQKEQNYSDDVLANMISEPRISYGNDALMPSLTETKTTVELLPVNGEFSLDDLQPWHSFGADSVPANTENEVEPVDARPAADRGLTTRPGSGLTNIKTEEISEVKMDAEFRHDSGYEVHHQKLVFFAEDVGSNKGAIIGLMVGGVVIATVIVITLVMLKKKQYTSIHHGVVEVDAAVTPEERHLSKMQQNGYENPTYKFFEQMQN
Sequence of G-protein coupled receptor 52 (Q9Y2T5 whole entry): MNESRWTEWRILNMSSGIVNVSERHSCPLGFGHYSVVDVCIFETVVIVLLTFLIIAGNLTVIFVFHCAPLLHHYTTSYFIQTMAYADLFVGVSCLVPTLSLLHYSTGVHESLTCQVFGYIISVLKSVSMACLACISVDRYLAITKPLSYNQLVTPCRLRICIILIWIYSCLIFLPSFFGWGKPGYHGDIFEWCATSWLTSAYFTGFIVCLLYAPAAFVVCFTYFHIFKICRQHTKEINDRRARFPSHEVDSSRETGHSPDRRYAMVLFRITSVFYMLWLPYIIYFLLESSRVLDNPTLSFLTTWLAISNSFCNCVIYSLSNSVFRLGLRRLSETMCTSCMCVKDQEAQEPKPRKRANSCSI

## N[C@H]1C[C@@H](C(=O)O)C[C@@H]1F
[1]
  IC50: 50 nM

## CC(=O)N[C@@H](Cc1cnc[nH]1)C(=O)N[C@H](Cc1ccccc1)C(=O)N[C@@H](CCCN=C(N)N)C(=O)N[C@@H](Cc1c[nH]c2ccccc12)C(N)=O
Melanocortin receptor 3
  IC50: 560 nM

## CSCC[C@H](NC(=O)[C@@H]1CCCN1C(=O)CNC(=O)[C@H](CCCCN)NC(=O)[C@H](Cc1cnc[nH]1)NC(=O)[C@H](CO)NC(=O)[C@H](CC(C)C)NC(=O)[C@H](CCCNC(=N)N)NC(=O)[C@@H]1CCCN1C(=O)[C@H](CCCNC(=N)N)NC(=O)[C@@H](N)CCC(N)=O)C(=O)N1CCC[C@H]1C(=O)N[C@@H](Cc1ccccc1)C(=O)O
[2]
  EC50: 1.4 nM

## N[C@H]1C=C(C(=O)O)C[C@@H]1F
[1]
  IC50: 20 nM

## O=C[C@H](C[C@@H]1CCNC1=O)NC(=O)[C@H](Cc1cccc(F)c1)NC(=O)c1cc2ccccc2[nH]1
Replicase polyprotein 1a
  IC50: 40 nM

## O=C[C@H](C[C@@H]1CCNC1=O)NC(=O)[C@H](CC1CCCCC1)NC(=O)c1cc2ccccc2[nH]1
Replicase polyprotein 1a
  IC50: 53 nM

## Cc1ccc(C[C@H](NC(=O)[C@@H](Cc2ccccc2)NC(=O)[C@@H](Cc2c[nH]c3ccccc23)NC(=O)[C@@H](N)CCCN)C(=O)N[C@H](Cc2ccccc2)C(=O)N[C@@H](Cc2cn(Cc3ccccc3)cn2)C(N)=O)cc1
Candida albicans
  IC50: 15.3 µg/mL (≈ 15.3 µM)

## CCCCc1ccc(-n2cnc(C[C@H](NC(=O)[C@H](Cc3c[nH]c4ccccc34)NC(=O)[C@@H](N)Cc3cn(-c4ccc(CCCC)cc4)cn3)C(=O)NCc3ccccc3)c2)cc1
Cryptococcus neoformans
  MIC: 2.46 µg/mL (≈ 2.96 µM)

## CC(C)(C)c1cc(Cn2cnc(C[C@H](NC(=O)[C@@H](N)Cc3c[nH]c4ccccc34)C(=O)NCc3ccccc3)c2)cc(C(C)(C)C)c1
Enterococcus faecalis
  MIC: 8 µg/mL (≈ 12.6 µM)
Staphylococcus aureus [3]
  MIC: 4.4 µg/mL

## CC(C)C[C@@H]1NC(=O)[C@@H](Cc2ccccc2)NC(=O)[C@@H](CCN)NC(=O)[C@@H](NC(=O)[C@H](CCN)NC(=O)[C@@H](NC(=O)[C@H](CCN)NC(=O)C[C@H](CN)C2CCCCC2)[C@@H](C)O)CCNC(=O)[C@H]([C@@H](C)O)NC(=O)[C@H](CCN)NC(=O)[C@H](CCN)NC1=O
Pseudomonas aeruginosa [4]
  MIC: 0.06 µg/mL
Klebsiella pneumoniae
  MIC: 0.125 µg/mL
Escherichia coli [5]
  MIC: 0.06 µg/mL
Acinetobacter baumannii [6]
  MIC: 0.25 µg/mL

## CC[C@H](C)[C@H](NC(=O)[C@H](CC1CCCCC1)NC(=O)[C@@H](Cc1c[nH]c2ccccc12)NC(=O)[C@@H](N)CCCN)C(=O)N[C@H](Cc1ccccc1)C(=O)N[C@@H](Cc1cn(Cc2ccccc2)cn1)C(N)=O
Candida albicans
  IC50: 1 µg/mL (≈ 1.04 µM)

## CC(=O)N[C@@H](Cc1c[nH]cn1)C(=O)N[C@H](Cc1ccc(I)cc1)C(=O)N[C@@H](CCCNC(=N)N)C(=O)N1Cc2ccccc2C[C@H]1C(N)=O (Ac-H[dPhe(4-I)]R[Tic]-NH2)
Melanocortin receptor 3
  IC50: 290 nM

## CC(=O)N[C@@H](Cc1ccncc1)C(=O)N[C@H](Cc1ccc(I)cc1)C(=O)N[C@@H](CCCNC(=N)N)C(=O)N[C@@H](Cc1c[nH]c2ccccc12)C(N)=O (Ac-[4Pal][dPhe(4-I)]RW-NH2)
Melanocortin receptor 3
  IC50: 7 nM

## C=CCCC[C@](C)(NC(=O)[C@H](CCCCN)NC(=O)[C@H](CC(C)C)NC(=O)[C@@H](N)Cc1ccccc1)C(=O)N[C@@H](CC(C)C)C(=O)N[C@@H](CCCCN)C(=O)N[C@@H](CCCCN)C(=O)N[C@@H](CC(C)C)C(=O)N[C@@H](CC(C)C)C(N)=O (H-FLK[S5]LKKLL-NH2)
Staphylococcus aureus [7]
  MIC: 4 µg/mL (≈ 3.51 µM)
Escherichia coli [8]
  MIC: 8 µg/mL (≈ 7.01 µM)
Acinetobacter baumannii [9]
  MIC: 4 µg/mL
Pseudomonas aeruginosa [10]
  MIC: 8 µg/mL (≈ 7.01 µM)

## CN(CC(=O)O)C(=O)[C@H](Cc1ccccc1)NC(=O)[C@@H](CCCN=C(N)N)NC(=O)[C@@H](N)Cc1ccc(O)cc1 (H-Y[dR]F[Sar]-OH)
Mu-type opioid receptor
  EC50: 90 nM

## CC[C@H](C)[C@H](NC(=O)[C@@H](NC(=O)[C@H](N)Cc1ccccc1)C(C)C)C(=O)N[C@@H](C)C(N)=O (H-[dF]VIA-NH2)
[11]
  inhibition: 100%

## CC[C@H](C)[C@H]1C(=O)N[C@@H](C)C(=O)N(C)[C@@H](CC(C)C)C(=O)N[C@@H](Cc2ccc(OC)cc2)C(=O)N(C)[C@H](C)C(=O)O[C@H](C)[C@H](N(C)C(=O)[C@H](CC(C)C)N(C)C(=O)[C@H](COC)N(C)C(=O)[C@@H](OC(=O)[C@H](C(C)C)N(C)C)C(C)C)C(=O)N(C)[C@@H](COC)C(=O)N1C (NMe2Val-[Hiv][NMeS](Me)[NMeL][NMeT][NMeS](Me)[NMeI]A[NMeL]Y(Me)[dNMeA]; ester 4-C)
HeLa
  IC50: 1.4 nM

## CCCCCCCC(=O)N[C@@H](Cc1cnc[nH]1)C(=O)N[C@H](Cc1ccccc1)C(=O)N[C@@H](CCCNC(=N)N)C(=O)N[C@@H](Cc1ccc(-c2ccccc2)cc1)C(N)=O (Octanoyl-H[dF]R[Bip]-NH2)
Melanocortin receptor 3
  IC50: 50 nM

## N=C(N)NCCC[C@@H]1C(=O)N[C@@H](Cc2ccccc2)C(=O)N(CC(N)=O)CCNC(=O)NCCCCCCN1C(=O)[C@@H](N)Cc1ccc(O)cc1 (mixture of isomers)
Mu-type opioid receptor
  EC50: 46 nM

## CC[C@H](C)[C@H]1C(=O)N2CCC[C@H]2C(=O)O[C@H](C(C)(C)C)C[C@@H](C)C[C@H](O)[C@H](C)C2=N[C@@H](CCC(=O)N[C@@H](Cc3ccc(OC)cc3)C(=O)N(C)[C@@H](C)C(=O)N1C)CS2 [APRATOXIN S4]
Replicase polyprotein 1a
  IC50: 170 nM

## C[C@@H](O)[C@@H]1NC(=O)[C@H](CCCCN)NC(=O)[C@@H](Cc2c[nH]c3ccccc23)NC(=O)[C@H](Cc2ccccc2)NC(=O)[C@@H](NC(=O)[C@H](N)Cc2ccccc2)CSSC[C@@H](C(=O)N[C@H](CO)[C@@H](C)O)NC1=O [OCTREOTIDE]
[12]
  half-life: 1.5 h

## Nc1nc2[nH]cc(CCc3ccc(C(=O)N[C@@H](CCC(=O)O)C(=O)O)cc3)c2c(=O)[nH]1 [PEMETREXED]
[13]
  IC50: 42 nM

## H-FLKLLKKLL-NH2
Staphylococcus aureus [7]
  MIC: 16 µg/mL
Escherichia coli [8]
  MIC: 32 µg/mL
Acinetobacter baumannii [9]
  MIC: 16 µg/mL
Pseudomonas aeruginosa [10]
  MIC: 8 µg/mL

## H-KKKKKKAAFAAWAAFAA-NH2
Escherichia coli [14]
  MIC: 1.6 µM

## H-KRHRKVLR-OH
[15]
  Kd: 46000 nM
